Data on 9 compounds can be found in patent US20100160208A1, “Pharmaceutical composition” (Antisense Pharma GmbH, priority 2003, published 2010).

Data set [1] has as its system glioblastoma, WHO grade IV. Kind of data set: Clinical phase I/II study, intratumoral Seq. Id. No. 30 in patients with glioblastoma. The class given is in vivo, human. The source says:
(§1) Clinical studies represented herein were primarily designed as safety studies and were approved by the local ethic committees and performed in accordance with the current international declaration of Helsinki for human experimentation and GCP and had to sign a written informed consent prior to recruitment.
(§2) The treatment with the antineoplastic agent followed routine schedules if nothing else is mentioned. Before the treatment with an TGF-beta antagonist, the antisense oligonucleotide of TGF-beta, with Seq. No. 30 the patients were selected according to the following criteria.
(§3) Patients had high grade gliom, either anaplastic astrocytome, WHO grade III, or glioblastoma, WHO grade IV, refractory to or recurrent after standard therapy (surgery, radiotherapy and different therapies with antineoplastic substances). Patients had not received antineoplastic agents within 10 days prior to the administration of the antagonist. Patients were between 18 and 75 years old. Karnofsky performance status (KPS) was at least 70%. Patients with clinically significant acute infections, cardiovascular abnormalities or poorly controlled seizures and pregnant and lactating females were excluded.
Surgical planning was based on computer tomography or magnetic resonance images. The perforated part of the catheter was placed in the solid, enhancing area of the tumor. Ventricles, cysts, resection cavities from prior surgical interventions, blood vessels and eloquent brain areas had to be avoided by the catheter trajectory. The catheter was introduced through a standard burr hole into the center of the largest tumor lesion. The distal end of the catheter was passed several centimetres under the galea through the skin and filled with saline. TGF-beta 2 specific antisense oligonucleotide with Seq. Id. No. 30 was administered intratumorally as a continuous high-flow microperfusion using an external pump system, Graseby 3200 (Smith Medical, London, GBM). The application system was removed after the end of the infusion. For safety assessment patients were followed up for 28 days. […]

Data set [2] concerns anaplastic astrocytoma, WHO grade III. Kind of data set: Clinical phase I/II study, intratumoral Seq. Id. No. 30 in patients with anaplastic astrocytoma. The format is in vivo, human.
Excerpt: as §1, §2, §3
Surgical planning was based on computer tomography or magnetic resonance images. The perforated part of the catheter was placed in the solid, enhancing area of the tumor. Ventricles, cysts, resection cavities from prior surgical interventions, blood vessels and eloquent brain areas had to be avoided by the catheter trajectory. The catheter was introduced through a standard burr hole into the center of the largest tumor lesion. The distal end of the catheter was passed several centimetres under the galea through the skin and filled with saline. TGF-beta 2 specific antisense oligonucleotide with Seq. Id. No. 30 was administered intratumorally as a continuous high-flow microperfusion using an external pump system, Graseby 3200 (Smith Medical, London, GBM). The application system was removed after the end of the infusion. For safety assessment patients were followed up for 28 days. Post-study MRI and survival data until death were collected by the investigators.
Comparison of survival data of patients treated with antineoplastic agents in combination with antagonists of factors negatively influencing the immune system (here: an antisense oligonucleotide of TGF-beta with the sequence Id. No. 30) to literature data for treatment with antineoplastic alone. Survival time is given from start of first chemotherapy after tumor recurrence. Median overall survival time of all patients treated with antineoplastic agents and TGF-beta 2 specific antisense oligonucleotide with Seq. Id. No. 30 (anaplastic astrocytom: 8 patients, glioblastoma, 23 patients) are compared to the most current literature data (Theodosopoulos, P. V. et al. 2001).
Reduction of tumor volumes of patients 04 and 17 was more than 80%. Tumor volume was assessed by measurement of the largest cross-sectional diameter of the enhancing lesion in the first layer and the largest cross-sectional diameter perpendicular to the first in the same plane and layer. For the third dimension, the largest cross-sectional diameter of all further planes perpendicular to the first one was determined.

The test system of data set [3] is pancreatic cancer cell line Hup-T3. Kind of data set: Cell-mediated cytotoxicity (CARE-LASS) assay, LAK effector cells on Hup-T3 target cells. The class given is cell-based. As to conditions: FIG. 6; effector:target 10:1; Seq. Id. No. 30 5 microM; gemzar 20 μg/ml. As for the experimental part: Cell-mediated cytotoxicity was quantified by the […] assay (Lichtenfels et al. 1994) using the NSCLC (non small cell lung carcinoma cell) line NCI-H661, the glioma cell line A-172, and the pancreatic cancer cell line Hup-T3 as target cells. […] Id. No. 14. […] Id. […] Additionally, for Hup-T3 cells 3 μg/ml Lipofectin® were used to enhance cellular uptake of the PTO. Untreated cells and cells treated with 3 μg/ml Lipofectin® were used as controls. Lymphokine activated killer cells (LAK cells) were used as effector cells. […] The other part of cells was incubated without additional treatment. Effector cells were incubated with the target cells with and without cytostatic drugs for 4 h. The supraaditive effect respectively the inhibition was calculated by subtracting the specific cell lysis, of the control from the specific cell lysis of the chemotherapeutic agent. Taking into account the sign this difference is summed up with the specific lysis of the inhibitor of TGF-beta, as depicted in the figures. In case the specific lysis of the combination of a chemotherapeutic agent with the TGF-beta inhibitor was higher than this sum, this was interpreted as supraaditive effect. In case the specific lysis of this combination was smaller than the sum this was interpreted as inhibition.

The next data set has as its system glioma cell line A-172. Description: Cell-mediated cytotoxicity (CARE-LASS) assay, LAK effector cells on A-172 target cells. The format is cell-based. As to conditions: Seq. Id. No. 30 5 microM. The protocol: (§4) Cell-mediated cytotoxicity was quantified by the CARE-LASS assay (Lichtenfels et al. 1994) using the NSCLC (non small cell lung carcinoma cell) line NCI-H661, the glioma cell line A-172, and the pancreatic cancer cell line Hup-T3 as target cells. NCI-H661 cells were pretreated with 5 μM TGF (transforming growth factor)-beta 1 specific antisense phosphorothioate oligodeoxynucleotide (PTO) Seq. Id. No. 14. A-172 and Hup-T3 cells were pretreated with 5 μM TGF-beta 2 specific antisense phosphorothioate oligodeoxynucleotide Seq. Id. No. 30 in medium at 5% CO2 and 37° C. for 3 days according to the cell line suppliers' instructions. Additionally, for Hup-T3 cells 3 μg/ml Lipofectin® were used to enhance cellular uptake of the PTO. Untreated cells and cells treated with 3 μg/ml Lipofectin® were used as controls.
Lymphokine activated killer cells (LAK cells) were used as effector cells. LAK cells were generated by a 3 day pretreatment of 5×10^6 PBMC from healthy volunteers with 10 ng/ml rh IL-2 (recombinant human interleukin 2) in 4 ml RPMI 1640 medium supplemented with 10% fetal calf serum at 5% CO2 and 37° C. One part of the effector cells was incubated additionally with rh TGF-[…] to mimic the presence of tumor cells ([…] rh TGF-[…]1 for NCI-H661, […] rh TGF-[…]2 for A-172 and Hup-T3). The other part of cells was incubated without additional treatment.
Effector cells were incubated with the target cells with and without cytostatic drugs for 4 h. The supraaditive effect respectively the inhibition was calculated by subtracting the specific cell lysis, of the control from the specific cell lysis of the chemotherapeutic agent. Taking into account the sign this difference is summed up with the specific lysis of the inhibitor of TGF-beta, as depicted in the figures. In case the specific lysis of the combination of a chemotherapeutic agent with the TGF-beta inhibitor was higher than this sum, this was interpreted as supraaditive effect. In case the specific lysis of this combination was smaller than the sum this was interpreted as inhibition.

The subject of data set [4] is NSCLC (non small cell lung carcinoma cell) line NCI-H661. Description: Cell-mediated cytotoxicity (CARE-LASS) assay, LAK effector cells on NCI-H661 target cells. The format is cell-based. The conditions noted are these: FIG. 9; effector:target 1.25:1; Seq. Id. No. 14 5 microM; taxotere 0.37 μg/ml. The protocol:
as §4
Lymphokine activated killer cells (LAK cells) were used as effector cells. LAK cells were generated by a 3 day pretreatment of 5×10^6 PBMC from healthy volunteers with 10 ng/ml rh IL-2 (recombinant human interleukin 2) in 4 ml RPMI 1640 medium supplemented with 10% fetal calf serum at 5% CO2 and 37° C. […]
Effector cells were incubated with the target cells with and without cytostatic drugs for 4 h. The supraaditive effect respectively the inhibition was calculated by subtracting the specific cell lysis, of the control from the specific cell lysis of the chemotherapeutic agent. […]

Setting [5] is: calculated after start of chemotherapy, patients treated with antineoplastic agents and Seq. Id. No. 30.
The mark [6] stands for this setting: oligonucleotide following chemotherapy (mainly temozolomide).
The mark [7] stands for this setting: FIG. 4, effector:target 20:1, BCNU 4 μM.
The mark [8] stands for this setting: FIG. 5, effector:target 1.25:1, CCNU 10 μM.
The mark [9] stands for this setting: FIG. 7, effector:target 10:1, temozolomide 50 μM.
Where [10] appears, read: FIG. 8, effector:target 2.5:1, vincristine 0.04 μmol/ml.
The mark [11] stands for this setting: FIG. 10, effector:target 5:1, procarbacine 3 nmol/ml.

As for CGGCATGTCTATTTTGTA [Seq. Id. No. 30], the “median overall survival time” value in data set [1] (FIG. 3, Seq. Id. No. 30 following temozolomide, from start of first chemotherapy after tumor recurrence, 10 patients) was 45.1 weeks; in data set [2] (FIG. 3, Seq. Id. No. 30 following temozolomide, from start of first chemotherapy after tumor recurrence, 3 patients), 146.6 weeks. Besides, the “median overall survival in our study” value was 42.4 weeks in data set [1] (setting [5]) and 147 weeks in data set [2] (setting [5]). In addition, the figures for the “median overall survival times” value in data set [1] (setting [6]) and in data set [2] (setting [6]) were 45 weeks and “about 147 weeks”, respectively. The tumor response result in data set [2] (1. Example, one patient, 21 months after first application, assessed by 3 independent specialists) is recorded as “complete response”. Besides, the “overall survival after first recurrence” value in data set [2] (1. Example, one patient, one cycle 10 μM, 4 μL/min, 1.42 mg in 4 days intratumorally after ACNU/tenoposide, temozolomide, Caelyx) is on record as 195 weeks. Also, the “overall survival after diagnosis of anaplastic astrocytoma” value in data set [2] (1. Example, one patient, one cycle intratumorally after prior chemotherapy) came out at 208 weeks. For the same compound, the tumor reduction in data set [2] (2. Example, one patient, magnetic resonance image 19.4 months after start of oligonucleotide treatment, central reading, partial response) was 83%. For the same compound, the mean overall survival worked out at 90 weeks in data set [2] (all anaplastic astrocytoma patients); 146.6 weeks in data set [2] (combination of Seq. Id. No. 30 and at least one further antineoplastic agent (e.g. temozolomide)). In data set [2] (patients 04 and 17), the “Reduction of tumor volumes” value is on record as “more than 80%”. Further, the “specific lysis of tumor cells” value in data set [3] is on record as 59.5%; in the data set with glioma cell line A-172 (setting [7]), 29.4%; with glioma cell line A-172 (setting [8]), 4.4%; in the data set on glioma cell line A-172 (setting [9]), 39.2%; with glioma cell line A-172 (setting [10]), 13.9%.
Regarding `O=NN(CCCl)C(=O)NCCCl` [BCNU, N,N′-bis(2-chlorethyl)-N-nitroso-urea, reference compound], in the data set with glioma cell line A-172 (setting [7]), the “specific lysis of tumor cells” value was 15.6%.
As for `CNNCc1ccc(C(=O)NC(C)C)cc1` [procarbacine, reference compound], the “specific lysis of tumor cells” value in the data set on glioma cell line A-172 (setting [11]) is 6.1%.
Take `CC[C@]1(O)C[C@H]2CN(CCc3c([nH]c4ccccc34)[C@@](C(=O)OC)(c3cc4c(cc3OC)N(C=O)[C@H]3[C@@](O)(C(=O)OC)[C@H](OC(C)=O)[C@]5(CC)C=CCN6CC[C@]43[C@@H]65)C2)C1` [vincristine, reference compound]: in the data set with glioma cell line A-172 (setting [10]), the “specific lysis of tumor cells” value worked out at 12.6%.
`Cn1nnc2c(C(N)=O)ncn2c1=O` [temozolomide, 3,4-dihydro-3-methyl-4-oxoimidazo->5,1d′1,2,3,4-tetrazin-8-carboximide, reference compound]: the “specific lysis of tumor cells” value with glioma cell line A-172 (setting [9]) was 31.3%.
Regarding `Nc1ccn([C@@H]2O[C@H](CO)[C@@H](O)C2(F)F)c(=O)n1` [gemzar, reference compound], the “specific lysis of tumor cells” value in data set [3] was determined as 34.5%.
In the case of `CC(=O)O[C@@]12CO[C@@H]1C[C@H](O)[C@@]1(C)C(=O)[C@H](O)C3=C(C)[C@@H](OC(=O)[C@H](O)[C@@H](NC(=O)OC(C)(C)C)c4ccccc4)C[C@@](O)([C@@H](OC(=O)c4ccccc4)[C@H]21)C3(C)C` [taxotere, reference compound], in data set [4], the “specific lysis of tumor cells” value came to 30.5%.
For “CTGATGTGTTGAAGAACA (chemistry not given here) [Seq. Id. No. 14]”, the “specific lysis of tumor cells” value stood at 65.3% in data set [4] and 16.4% in the data set with glioma cell line A-172 (setting [11]).
For the compound `O=NN(CCCl)C(=O)NC1CCCCC1` [CCNU, 1-(2-Chloroethyl)-3-cyclohexyl-1-nitrosourea, reference compound], the “specific lysis of tumor cells” value with glioma cell line A-172 (setting [8]) is 0.5%.
